Assay results as given in ChEMBL document CHEMBL1221174, “Evolution of glutamate interactions during binding to a glutamate receptor” (Nat Chem Biol, 2005).
Active and inactive are the calls of the source. The calls are words filed in the database; no cut-off is given here.

Tests used:
[1] = Binding affinity to Glutamate receptor 2 Y450F mutant S1S2 ligand binding domain assessed as induction protein vibrational state by time resolved FTIR difference spectra method
[2] = Binding affinity to Glutamate receptor 2 E705D mutant S1S2 ligand binding domain assessed as induction protein vibrational state by time resolved FTIR difference spectra method

Activity [1]: Active
Activity [2]: Active
SMILES: N[C@@H](CCC(=O)O)C(=O)O
